According to patent publication US10358469B2, “Methods and pharmaceutical compositions for the treatment of cancer” (INSERM (INSTITUT NATIONAL DE LA SANTÉ ET DE LA RECHERCHE …, priority 2014, dated 2019):
“Also recorded” adds a separate entry of the source. Non-standard residues stand in square brackets, D forms with d.

Legend:
HaCat cells = experiment: Cell viability (MTT) of nonmalignant HaCat cells in the absence of serum; format: cell-based; conditions: 10 μM, 24 hours, FIG. 2B / 5B
Method: FIG. 2: TAT-AAC-11-LZ (363-399), RI-TAT-AAC-11-LZ (363-399) and Cter-Antp-AAC-11-LZ (363-399) peptides preferentially kill tumor cells. (A) A549 cells were plated at a densities of 4.5×10^3 in 96 well plates (100 μL total volume per well) and allowed to attach overnight in a 37° C. incubator (5% CO2). Media was removed from cells and replaced with media containing the indicated peptides at various concentrations (100 μL total volume per well) peptide in the absence of serum and the plates were incubated for 24 hours. The MTT assay was then completed and data analysis was performed as described herein. (B) A549 or HaCat cells were plated at a densities of 4.5×10^3 in 96 well plates (100 μL total volume per well) and allowed to attach overnight in a 37° C. incubator (5% CO2). Media was removed from cells and replaced with media containing the indicated peptides at 10 μM (100 μL total volume per well) peptide in the absence of serum and the plates were incubated for 24 hours. […]
Viability of cells cultured in the 96-well culture plates was assessed by measuring mitochondrial dehydrogenase activity, using the colorimetric CellTiter 96® AQueous One Solution Cell Proliferation Assay (Promega), according to the manufacturer′ instructions. […] The color can then be quantified using a simple colorimetric assay. The results are read on a multiwall scanning spectrophotometer (ELISA reader).

A549 cells = experiment: Cell viability (MTT) of A549 cells under low serum / serum deprivation; format: cell-based; conditions: for cytotoxicity (decrease of A549 viability) relative to comparison peptide, dose-response: various concentrations, low-serum conditions, FIG. 2A / 5A; for cytotoxicity (decrease of A549 viability) relative to comparison peptide, dose-response / induction of cell death of A549 cells: 24 hours; for induction of cell death of A549 cells: 10 μM, serum deprivation, FIG. 1C; for cellular viability: 2 µM
Method: (A) Karpas 1106, SU-DHL-5, SeAx and HUT-78 cells were plated at a densities of 6×10^3 in 96 well plates (100 μL total volume per well) and treated for 24 hours in a 37° C. incubator (5% CO2) with increasing concentrations of the Antp-AAC-11-LZ (363-399). 20 μL MTS reagent was then added to each well and plates were incubated for an additional 4 hours. Absorbance was measured at 490 nm using a 96-well plate reader. The extent to which the Antp-AAC-11-LZ (363-399) peptide inhibited cell proliferation was calculated as a percentage of the absorbance in each well containing the Antp-AAC-11-LZ (363-399) peptide relative to wells containing no peptide (negative control). Each bar represents the mean±s.d. from at least three independent experiments. (B) Indicated cells were plated at a densities of 4.5×10^3 in 96 well plates (100 μL total volume per well) and allowed to attach overnight in a 37° C. incubator (5% CO2). Media was removed from cells and replaced with media containing Antp-AAC-11-LZ (363-399) peptide at various concentrations (100 μL total volume per well) peptide and the plates were incubated for 24 hours. The MTT assay was then completed and data analysis was performed as described herein. […] A549 cells were plated at a densities of 4.5×10^3 in 96 well plates (100 μL total volume per well) and allowed to attach overnight in a 37° C. incubator (5% CO2). Media was removed from cells and replaced with media containing the indicated peptides at 10 μM (100 μL total volume per well) and the plates were incubated for 24 hours. The MTT assay was then completed and data analysis was performed as described herein.
(A) A549 cells were plated at a densities of 4.5×10^3 in 96 well plates (100 μL total volume per well) and allowed to attach overnight in a 37° C. incubator (5% CO2). Media was removed from cells and replaced with media containing the indicated peptides at various concentrations (100 μL total volume per well) peptide in the absence of serum and the plates were incubated for 24 hours. The MTT assay was then completed and data analysis was performed as described herein. (B) A549 or HaCat cells were plated at a densities of 4.5×10^3 in 96 well plates (100 μL total volume per well) and allowed to attach overnight in a 37° C. incubator (5% CO2). Media was removed from cells and replaced with media containing the indicated peptides at 10 μM (100 μL total volume per well) peptide in the absence of serum and the plates were incubated for 24 hours. The MTT assay was then completed and data analysis was performed as described herein.
A549 cells were plated at a densities of 4.5×10^3 in 96 well plates (100 μL total volume per well) and allowed to attach overnight in a 37° C. incubator (5% CO2). Cells were left untreated or pre-treated with 100 μM Z-VAD-FMK for 2 h. […] The MTT assay was then completed and data analysis was performed as described herein.
(A) A549 cells were plated at a densities of 4.5×10^3 in 96 well plates (100 μL total volume per well) and allowed to attach overnight in a 37° C. incubator (5% CO2). Media was removed from cells and replaced with media containing the indicated Antp-AAC-11-LZ peptides at various concentrations (100 μL total volume per well) peptide and the plates were incubated for 24 hours. The MTT assay was then completed and data analysis was performed as described herein. (B) A549 or HaCat cells were plated at a densities of 4.5×10^3 in 96 well plates (100 μL total volume per well) and allowed to attach overnight in a 37° C. incubator (5% CO2). Media was removed from cells and replaced with media containing the indicated peptides at 10 μM (100 μL total volume per well) peptide in the absence of serum and the plates were incubated for 24 hours. The MTT assay was then completed and data analysis was performed as described herein.

[1] = test system: human triple-negative breast cancer xenograft PDX01; experiment: Triple-negative breast cancer patient-derived xenograft PDX01 in nude mice; format: in vivo; conditions: 2.4 mg/kg i.p., 7 daily injections, p=0.01
Method: (§1) Breast cancer fragments were obtained from patients at the time of surgery, with informed written patient consent. After imaging-guided human tumor biopsies had been performed, fragments of 30 to 60 mm^3 were subcutaneously grafted in 6-week-old NMRI-nude mice (Centre-Elevage-Janvier, France), under xylasin (10 mg/kg)/ketamin (100 mg/kg) anesthesia. Mice were maintained in specific pathogen-free animal housing (Institut Universitaire d'Hematologie) and received estrogen (17 mg/mL) diluted in drinking water. Xenografts were characterized and subsequently subcutaneously transplanted from mouse to mouse. […] Two human triple-negative breast cancer (HBC) xenografts models were used in our experiments (PDX01 and PDX02). […] Following transplantation (n=6 per model) tumor growth was assessed by measuring tumor size in two dimension using a Vernier caliper. Tumor volume was calculated using the formula [3.14×long axis×short axis×short axis]/6 (Kjonniksen et al., 1989). […] Mice were weighted and the tumor size was measured by a caliper and recorded daily. Fourteen days after beginning of the treatment mice were sacrificed. The tumors, kidney, lungs, heart, liver, pancreas and spleen were taken and fixed. Paraffin-embedded sections were prepared and stained with hematoxylin and eosin for histological analysis.

[2] = test system: human triple-negative breast cancer xenograft PDX02; experiment: Triple-negative breast cancer patient-derived xenograft PDX02 in nude mice; format: in vivo; conditions: 2.4 mg/kg i.p., 7 daily injections, p=0.01
Method: as §1

D3H2LN cells = experiment: Proliferation of D3H2LN cells (not showed); format: cell-based
[3] = test system: leukemic cells isolated from hMRP8-PML/RARα transgenic mice; experiment: Acute promyelocytic leukemia (APL) mouse model, survival; format: in vivo
Method: FIG. 9: Antp-AAC-11-LZ (363-399) peptide treatment of leukemic mice protects against disease progression. Mice were challenged with 10^4 leukemic cells isolated from hMRP8-PML/RARα transgenic mice, allowed to engraft for 10 d, and were then injected intraperitonaly each day for 7 consecutive days with Antp-AAC-11-LZ (363-399) peptide (1.8 mg/kg) or vehicle (normal saline solution), or subcutaneously implanted with a 21-d release pellet containing 5 mg ATRA (n=6 for each treatment). Mice were monitored for survival.
We use an established in vivo APL model based on syngenic grafts of leukemic blasts from hMRP8-PML/RARα transgenic mice, as described by Brown et al. (Brown et al., 1997). This model mimics human APL, both in its biological characteristics and its response to conventional therapeutic drugs such as all-trans retinoic acid (ATRA) and 100% of the mice die of the disease (Brown et al., 1997; Kogan et al., 2000; Lallemand-Breitenbach et al., 1999). […] leukemic cells isolated from bone marrow, spleen, or lymph nodes of leukemic hMRP8-PML/RARα transgenic mice (Brown et al., 1997) were injected into the tail vein of 6-7 week old syngeneic FVB/N mice. Establishment of leukemia was assessed by the appearance of high leukocyte and low platelet counts at around day 8 (Brown et al., 1997). Ten days after transplantation, mice implanted with leukemic cells were randomly assigned to either type of treatment (n=6). Antp-AAC-11-LZ (363-399) peptide (1.8 mg/kg) or vehicle (normal saline solution) was injected intraperitonaly each day for 7 consecutive days. Retinoic acid was administrated by subcutaneous implantation of a 21-d release pellet containing 5 mg ATRA (Innovative Research of America). Mice were then monitored for survival.

Ac-[dR][dR][dR][dQ][dR][dR][dK][dK][dR]G[dY]G[dT][dK]G[dQ][dL][dA][dL][dR][dL][dQ][dR][dI][dY][dV][dQ][dL]G[dR][dA][dF][dY][dQ][dL][dR][dI][dK][dF][dD][dK][dL][dK][dE][dA][dN][dL][dK][dA]-NH2 [RI-TAT-AAC-11-LZ (363-399)]
cytotoxicity in nonmalignant cells (HaCat cells): very little cytotoxicity | cytotoxicity (decrease of A549 viability) relative to comparison peptide, dose-response (A549 cells): more effective than the TAT-AAC-11-LZ (363-399) peptide

AAC-11-LZ (363-399): AKLNAEKLKDFKIRLQYFARGLQVYIRQLRLALQGKT (SEQ ID NO: 3) (Synthetic AAC-11-LZ (363-399))
final mean tumor volume relative to control-treated mice [1]: less than 35% | induction of cell death of A549 cells (A549 cells): neither the Penetratin peptide alone, the AAC-11-LZ (363-399) peptide without the Penetratin linkage nor the mutant peptide Antp-AAC-11-LZ (363-399) L/G did induce cell death | final mean tumor volume relative to control-treated mice [2]: less than 50%

Antp-AAC-11-LZ (363-399) L/G: RQIKIWFKKQNRRMKWKKAKLNAEKLKDFKIRGQYFARGGQVYIRQGRLALQGKT (SEQ ID NO: 5), leucines 377, 384 and 391 mutated to glycines (Ac-RQIKIWFKKQNRRMKWKKAKLNAEKLKDFKIRGQYFARGGQVYIRQGRLALQGKT-NH2)
induction of cell death of A549 cells (A549 cells): neither the Penetratin peptide alone, the AAC-11-LZ (363-399) peptide without the Penetratin linkage nor the mutant peptide Antp-AAC-11-LZ (363-399) L/G did induce cell death

Ac-YGRKKRRQRRRGGGAKLNAEKLKDFKIRLQYFARGLQVYIRQLRLALQGKT-NH2 [TAT-AAC-11-LZ (363-399)]
proliferation at the concentrations used for migration (D3H2LN cells): neither the Antp-AAC-11-LZ (363-399) or TAT-AAC-11-LZ (363-399) peptides impaired proliferation | cytotoxicity in nonmalignant cells (HaCat cells): largely more resistant | cytotoxicity (decrease of A549 viability) relative to comparison peptide, dose-response (A549 cells): at least as effective as compared to the Antp-AAC-11-LZ (363-399) peptide

CC1=C(/C=C/C(C)=C/C=C/C(C)=C/C(=O)O)C(C)(C)CCC1 [ATRA, all-trans retinoic acid, reference compound]
mice surviving up to 67 d ([3]; n=6 per treatment): one mouse | mean survival time ([3]; peptide 1.8 mg/kg i.p. daily for 7 days, ATRA 5 mg 21-d release pellet s.c., from day 10 after graft, n=6): 56 days

Ac-RQIKIWFKKQNRRMKWKKKDFKIRLQYFARGLQVYIRQLRLALQG-NH2 [Antp-AAC-11-LZ (371-397)]
cytotoxicity (decrease of A549 viability) relative to comparison peptide, dose-response (A549 cells): reduced cytotoxicity compared with the Antp-AAC-11-LZ (371-399) peptide; also recorded: significantly higher cell death compared with the Antp-AAC-11-LZ (363-399) parent peptide

Ac-RQIKIWFKKQNRRMKWKKLQYFARGLLRLALQGKT-NH2 [Antp-AAC-11-LZ (377-399 4385-390)]
cellular viability (A549 cells): 3 % of control | cytotoxicity (decrease of A549 viability) relative to comparison peptide, dose-response (A549 cells): highest activity

Ac-RQIKIWFKKQNRRMKWKKKDFKIRLQYFARGLQVYIRQLRLALQGKT-NH2 [Antp-AAC-11-LZ (371-399)]
cellular viability (A549 cells): 33.2 % of control | cytotoxicity (decrease of A549 viability) relative to comparison peptide, dose-response (A549 cells): markedly increased cytotoxicity potency compared to the parent peptide

Ac-RQIKIWFKKQNRRMKWKKFARGLQVYIRQLRLALQGKT-NH2 [Antp-AAC-11-LZ (380-399)]
cytotoxicity (decrease of A549 viability) relative to comparison peptide, dose-response (A549 cells): substantial but weaker cell death than the Antp-AAC-11-LZ (363-399) peptide

Ac-RQIKIWFKKQNRRMKWKKKDFKIRLQYFARGLQVYIRQL-NH2 [Antp-AAC-11-LZ (371-391)]
cytotoxicity (decrease of A549 viability) relative to comparison peptide, dose-response (A549 cells): reduced cytotoxicity compared with the Antp-AAC-11-LZ (371-399) peptide; also recorded: significantly higher cell death compared with the Antp-AAC-11-LZ (363-399) parent peptide
